Experimental data taken from BindingDB's records for doi:10.1021/jm0494974 (Institute, 2005).

Molecular target: Tubulin beta-2B chain (UniProt Q6B856)
Experiment: Binding affinity against tubulin from goat brain relative to colchicine

Tubulin beta-2B chain, sequence (Q6B856 whole entry): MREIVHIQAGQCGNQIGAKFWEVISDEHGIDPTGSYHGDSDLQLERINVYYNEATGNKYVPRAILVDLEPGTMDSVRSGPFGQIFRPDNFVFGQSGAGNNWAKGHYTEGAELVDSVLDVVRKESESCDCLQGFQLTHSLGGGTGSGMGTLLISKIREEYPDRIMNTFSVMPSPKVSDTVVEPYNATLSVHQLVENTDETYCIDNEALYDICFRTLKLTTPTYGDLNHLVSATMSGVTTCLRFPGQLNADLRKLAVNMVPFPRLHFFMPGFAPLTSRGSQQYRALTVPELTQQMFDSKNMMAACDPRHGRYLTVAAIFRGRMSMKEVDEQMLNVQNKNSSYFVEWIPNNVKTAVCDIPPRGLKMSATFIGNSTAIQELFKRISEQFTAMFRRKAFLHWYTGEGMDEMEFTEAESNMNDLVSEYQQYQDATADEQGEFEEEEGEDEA

| Compound | Ki [µM] |
| --- | --- |
| COc1ccc(S(=O)(=O)Nc2cccc3cc[nH]c23)cc1 [N-(1H-Indol-7-yl)-4-methoxy-benzenesulfonamide] | 14 |
| COc1ccc(S(=O)(=O)Nc2cccc3cc(Cl)[nH]c23)cc1 [N-(2-Chloro-1H-indol-7-yl)-4-methoxy-benzenesulfonamide] | 28 |
| COc1ccc(S(=O)(=O)Nc2cccc3c(Cl)c[nH]c23)cc1 [N-(3-Chloro-1H-indol-7-yl)-4-methoxy-benzenesulfonamide] | 14 |
| COc1ccc(S(=O)(=O)Nc2ccc(Cl)c3cc[nH]c23)cc1 [N-(4-Chloro-1H-indol-7-yl)-4-methoxy-benzenesulfonamide] | 14 |
| COc1ccc(S(=O)(=O)Nc2cc(Cl)cc3cc[nH]c23)cc1 [N-(5-Chloro-1H-indol-7-yl)-4-methoxy-benzenesulfonamide] | 7 |
